Consider 11 compounds from patent US20240158418A1 (C4 Therapeutics, Inc., priority 2021, published 2024).

The structures appear in SMILES notation. Bounds are passed on as bounds.

T1 sequence (P00533 25-1210 T790M/L858R): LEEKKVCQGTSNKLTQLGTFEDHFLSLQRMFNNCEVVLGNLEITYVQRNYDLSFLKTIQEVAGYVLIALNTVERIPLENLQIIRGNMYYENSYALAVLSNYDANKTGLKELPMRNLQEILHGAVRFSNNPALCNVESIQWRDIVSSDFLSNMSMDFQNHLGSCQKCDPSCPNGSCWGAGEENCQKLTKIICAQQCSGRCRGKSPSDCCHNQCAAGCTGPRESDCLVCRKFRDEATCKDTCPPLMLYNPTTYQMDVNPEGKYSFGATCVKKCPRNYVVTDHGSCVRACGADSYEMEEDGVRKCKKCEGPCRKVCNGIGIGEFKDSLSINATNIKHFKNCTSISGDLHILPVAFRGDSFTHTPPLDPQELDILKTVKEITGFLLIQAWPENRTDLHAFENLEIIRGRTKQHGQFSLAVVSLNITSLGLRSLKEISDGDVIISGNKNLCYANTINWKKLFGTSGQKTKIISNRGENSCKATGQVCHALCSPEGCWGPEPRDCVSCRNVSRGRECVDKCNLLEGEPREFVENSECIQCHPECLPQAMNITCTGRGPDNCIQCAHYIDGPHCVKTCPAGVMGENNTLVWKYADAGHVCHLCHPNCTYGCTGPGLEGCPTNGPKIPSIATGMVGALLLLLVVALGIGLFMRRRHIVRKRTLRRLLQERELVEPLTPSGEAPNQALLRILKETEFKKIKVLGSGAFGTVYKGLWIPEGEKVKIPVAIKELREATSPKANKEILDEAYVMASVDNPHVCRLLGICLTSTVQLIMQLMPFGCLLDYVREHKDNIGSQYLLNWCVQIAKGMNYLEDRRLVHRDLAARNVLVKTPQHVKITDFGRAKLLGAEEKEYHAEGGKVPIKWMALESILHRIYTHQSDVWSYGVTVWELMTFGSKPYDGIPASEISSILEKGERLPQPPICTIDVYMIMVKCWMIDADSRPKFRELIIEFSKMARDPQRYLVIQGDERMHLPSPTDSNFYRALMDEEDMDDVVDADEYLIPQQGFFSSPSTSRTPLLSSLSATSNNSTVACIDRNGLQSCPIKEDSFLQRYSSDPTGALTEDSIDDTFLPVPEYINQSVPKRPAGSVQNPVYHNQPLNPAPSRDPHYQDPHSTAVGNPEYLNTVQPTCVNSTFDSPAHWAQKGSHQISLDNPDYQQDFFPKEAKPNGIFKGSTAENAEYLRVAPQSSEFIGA

One test addresses T1, EGFR L858R-T790M (Homo sapiens, UniProt P00533, L858R/T790M).
T1 construct: NCI-H1975 (harboring EGFR heterozygous L858R-T790M mutations); host or cells: NCI-H1975
The experiment in a line: EGFR degradation, Total EGFR (L858R-specific) HTRF, NCI-H1975. The following applies: Table 9A; NCI-H1975 cells, 6 hours, Total EGFR HTRF; read-out: H1975 EGFR DC50. Type of test: cell-based. An outline of the steps:
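HTRF read-outs: pY1068 phospho-EGFR for IC50; total EGFR (pan-EGFR in A431, L858R-specific in mutant lines) for DC50. Compounds were titrated 11 points, half-log, from 10 μM in duplicate onto cells in 10% FBS RPMI, incubated 6 h at 37°C.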
(Time-resolved FRET reads energy transfer from a long-lived donor to a nearby acceptor.)
Regarding `O=C1CC[C@H](Nc2ccc(C3CCN(CC(=O)N4CC[C@@H](Oc5ccc(-c6cc(F)c7c(c6)C(=O)N(C(C(=O)Nc6nccs6)c6ncn8c6CCC8)C7)cc5)C4)CC3)cc2)C(=O)N1` (stereo partly drawn) [Compound 41, 2-(6,7-dihydro-5H-pyrrolo[1,2-c]imidazol-1-yl)-2-[6-[4-[(3R)-1-[2-[4-[4-[[(3S)-2,6-dioxo-3-piperidyl]amino]phenyl]-1-piperidyl]acetyl]pyrrolidin-3-yl]oxyphenyl]-4-fluoro-1-oxo-isoindolin-2-yl]-N-thiazol-2-yl-acetamide], the DC50 is below 0.05 µM. On the same count and under the same terms, with `O=C1CCC(Nc2ccc(C3CCN(CC(=O)N4CCN(c5ccc(-c6cc(F)c7cn(C(C(=O)Nc8nccs8)c8ncn9c8CCC9)nc7c6)cn5)CC4)CC3)c(F)c2)C(=O)N1` (centres unmarked) [Compound 64, 2-(6,7-dihydro-5H-pyrrolo[1,2-c]imidazol-1-yl)-2-[6-[6-[4-[2-[4-[4-[(2,6-dioxo-3-piperidyl)amino]-2-fluoro-phenyl]-1-piperidyl]acetyl]piperazin-1-yl]-3-pyridyl]-4-fluoro-indazol-2-yl]-N-thiazol-2-yl-acetamide] the figure was 0.05 to 0.15 µM; with `O=C1NC(=O)C2(Nc3ccc(C4CCN(CC(=O)N5CCC(Oc6ccc(-c7cc(F)c8c(c7)C(=O)N(C(C(=O)Nc7nccs7)c7ncn9c7CCC9)C8)cc6)CC5)CC4)cc3)CC1C2` (centres unmarked) [Compound 38, 2-(6,7-dihydro-5H-pyrrolo[1,2-c]imidazol-1-yl)-2-(6-(4-((1-(2-(4-(4-((2,4-dioxo-3-azabicyclo[3.1.1]heptan-1-yl)amino)phenyl)piperidin-1-yl)acetyl)piperidin-4-yl)oxy)phenyl)-4-fluoro-1-oxoisoindolin-2-yl)-N-(thiazol-2-yl)acetamide], 0.05 to 0.15 µM.

The test is the same for the next values; noted with them: Table 9B; NCI-H1975 cells, 6 hours, Total EGFR HTRF; read-out: H1975 EGFR DC50.
For the compound `Cn1nc(N2CCC(=O)NC2=O)c2ccc([C@H]3CCN(CC(=O)N4CC5(C4)CN(c4ccc(-c6cc(F)c7cn(C(C(=O)Nc8nccs8)c8ncn9c8CCC9)nc7c6)cc4)C5)CC3(F)F)cc21` (stereo partly drawn) [Compound 76, 2-(6,7-dihydro-5H-pyrrolo[1,2-c]imidazol-1-yl)-2-(6-(4-(6-(2-((R)-4-(3-(2,4-dioxotetrahydropyrimidin-1(2H)-yl)-1-methyl-1H-indazol-6-yl)-3,3-difluoropiperidin-1-yl)acetyl)-2,6-diazaspiro[3.3]heptan-2-yl)phenyl)-4-fluoro-2H-indazol-2-yl)-N-(thiazol-2-yl)acetamide], the half-maximal degradation concentration (DC50) is below 0.05 µM.

As for `Cc1cc(C2CCN(C(=O)CN3CCC(c4ccc(NC5CCC(=O)NC5=O)cc4)CC3)CC2)ccc1-c1cc(F)c2c(c1)C(=O)N(C(C(=O)Nc1nccs1)c1ncn3c1CCC3)C2` (centres unmarked) [Compound 152, 2-(6,7-dihydro-5H-pyrrolo[1,2-c]imidazol-1-yl)-2-[6-[4-[1-[2-[4-[4-[(2,6-dioxo-3-piperidyl)amino]phenyl]-1-piperidyl]acetyl]-4-piperidyl]-2-methyl-phenyl]-4-fluoro-1-oxo-isoindolin-2-yl]-N-thiazol-2-yl-acetamide], the DC50 lay in the range of 0.05 to 0.15 µM. As for `Cn1nc(N2CCC(=O)NC2=O)c2ccc([C@H]3CCN(C(=O)CN4CCC5(CC4)CN(c4ccc(-c6cc(F)c7c(c6)C(=O)N(C(C(=O)Nc6nccs6)c6ncn8c6CCC8)C7)cc4)C5)CC3(F)F)cc21` (stereo partly drawn) [Compound 140, 2-(6,7-dihydro-5H-pyrrolo[1,2-c]imidazol-1-yl)-2-[6-[4-[7-[2-[(4R)-4-[3-(2,4-dioxohexahydropyrimidin-1-yl)-1-methyl-indazol-6-yl]-3,3-difluoro-1-piperidyl]-2-oxo-ethyl]-2,7-diazaspiro[3.5]nonan-2-yl]phenyl]-4-fluoro-1-oxo-isoindolin-2-yl]-N-thiazol-2-yl-acetamide], the DC50 was below 0.05 µM. Regarding `C[C@@H]1CC(O)(CC(=O)N2CC3(C2)CN(c2ccc(-c4cc(F)c5c(c4)C(=O)N(C(C(=O)Nc4nccs4)c4ncn6c4CCC6)C5)cc2)C3)C[C@H](C)N1c1ccc(NC2CCC(=O)NC2=O)cc1F` (some centres unmarked) [Compound 161, 2-(6,7-dihydro-5H-pyrrolo[1,2-c]imidazol-1-yl)-2-[6-[4-[2-[2-[(2s,6r)-1-[4-[(2,6-dioxo-3-piperidyl)amino]-2-fluoro-phenyl]-4-hydroxy-2,6-dimethyl-4-piperidyl]acetyl]-2,6-diazaspiro[3.3]heptan-6-yl]phenyl]-4-fluoro-1-oxo-isoindolin-2-yl]-N-thiazol-2-yl-acetamide], the 50% degradation concentration (DC50) was below 0.05 µM. For `COc1cc(N2CCC(O)(CC(=O)N3CC4(C3)CN(c3ccc(-c5cc(F)c6c(c5)C(=O)N(C(C(=O)Nc5nccs5)c5ncn7c5CCC7)C6)cc3)C4)CC2)c(F)cc1NC1CCC(=O)NC1=O` (single isomer, unassigned) [Compound 173, 2-(6,7-dihydro-5H-pyrrolo[1,2-c]imidazol-1-yl)-2-[6-[4-[2-[2-[1-[4-[[2,6-dioxo-3-piperidyl]amino]-2-fluoro-5-methoxy-phenyl]-4-hydroxy-4-piperidyl]acetyl]-2,6-diazaspiro[3.3]heptan-6-yl]phenyl]-4-fluoro-1-oxo-isoindolin-2-yl]-N-thiazol-2-yl-acetamide], the half-maximal degradation concentration (DC50) was below 0.05 µM.

In the case of `O=C1CC[C@H](Nc2ccc(N3CCC(O)(CC(=O)N4CC5(C4)CN(c4ccc(-c6cc(F)c7c(c6)C(=O)N(C(C(=O)Nc6nccs6)c6ncn8c6CCC8)C7)cn4)C5)CC3)c(F)c2)C(=O)N1` (stereo partly drawn) [Compound 110, 2-(6,7-dihydro-5H-pyrrolo[1,2-c]imidazol-1-yl)-2-(6-(6-(6-(2-(1-(4-(((S)-2,6-dioxopiperidin-3-yl)amino)-2-fluorophenyl)-4-hydroxypiperidin-4-yl)acetyl)-2,6-diazaspiro[3.3]heptan-2-yl)pyridin-3-yl)-4-fluoro-1-oxoisoindolin-2-yl)-N-(thiazol-2-yl)acetamide], the 50% degradation concentration (DC50) is below 0.05 µM.

Take `O=C1CCC(Nc2ccc(N3CCC(O)(CC(=O)N4CC5(C4)CN(c4ccc(-c6ccc7cn(C(C(=O)Nc8nccs8)c8ncn9c8CCC9)nc7c6F)cn4)C5)CC3)c(F)c2)C(=O)N1` (centres unmarked) [Compound 74, 2-(6,7-dihydro-5H-pyrrolo[1,2-c]imidazol-1-yl)-2-[6-[6-[2-[2-[1-[4-[(2,6-dioxo-3-piperidyl)amino]-2-fluoro-phenyl]-4-hydroxy-4-piperidyl]acetyl]-2,6-diazaspiro[3.3]heptan-6-yl]-3-pyridyl]-7-fluoro-indazol-2-yl]-N-thiazol-2-yl-acetamide]: the 50% degradation concentration (DC50) is below 0.05 µM.

As to `Cn1nc(N2CCC(=O)NC2=O)c2ccc(C3CCN(CC(=O)N4CC5(C4)CN(c4ccc(-c6cc(F)c7c(c6)C(=O)N(C(C(=O)Nc6nccs6)c6ncn8c6CCC8)C7)cc4)C5)CC3F)cc21` (centres unmarked) [Compound 133, 2-(6,7-dihydro-5H-pyrrolo[1,2-c]imidazol-1-yl)-2-[6-[4-[2-[2-[4-[3-(2,4-dioxohexahydropyrimidin-1-yl)-1-methyl-indazol-6-yl]-3-fluoro-1-piperidyl]acetyl]-2,6-diazaspiro[3.3]heptan-6-yl]phenyl]-4-fluoro-1-oxo-isoindolin-2-yl]-N-thiazol-2-yl-acetamide], the DC50 is below 0.05 µM.

As a reminder, the DC50 is the concentration giving 50% degradation.
